ChEMBL document CHEMBL4419172, “Small molecule inhibitors of polynucleotide kinase/phosphatase, poly(ADP-ribose) polymerase and uses thereof” (2017)
Active and inactive are the calls of the source. No cut-off for these calls is given here. Starred links: 1 amine or outer side, 2 acyl side, 3 side chain; linkers in the order of their positions; H or OH if unused. Positions of bridges follow the written chain, without caps; N, C: chain ends. Non-standard residues stand in square brackets, D forms with d. Residues, ends and D or L forms follow the SMILES beside them. Adda = CO[C@@H](Cc1ccccc1)[C@@H](C)/C=C(C)/C=C/[C@H](N[*:1])[C@H](C)C(=O)[*:2]; dAsp(3S-Me) = C[C@H](C(=O)[*:3])[C@@H](N[*:1])C(=O)[*:2]; d(γGlu) = O=C(O)[C@@H](CCC(=O)[*:2])N[*:1]; NMeDha = C=C(NC)C(=O)O

Columns and labels:
[1] = Cytotoxicity against human MDA-MB-231 cells assessed as reduction in cell proliferation at 100 uM incubated for 72 hrs by cell-titer 96 aqueous non-radioactive cell proliferation assay; format: cell-based
[2] = test system: A549; assay: Antiproliferative activity against PNKP-depleted and DNA polymerase-beta dominant negative human A549 cells assessed as reduction in cell survival at 1 to 5 uM by MTS assay; format: functional, cell-based
[3] = test system: MDA-MB-231; assay: Cytotoxicity against human MDA-MB-231 cells assessed as reduction in cell proliferation at 1 uM incubated for 72 hrs by cell-titer 96 aqueous non-radioactive cell proliferation assay; format: cell-based; conditions: mda-mb-231, 72 h
[4] = test system: A549; assay: Cytotoxicity against human A549 cells assessed as reduction in cell proliferation at 1 uM incubated for 72 hrs by cell-titer 96 aqueous non-radioactive cell proliferation assay; format: cell-based; conditions: a549, 72 h
[5] = test system: A549; assay: Radiosensitizer activity in human A549 cells assessed as reduction in cell survival at 1 uM pre-incubated for 2 hrs prior to gamma irradiation and further incubated for 24 hrs and measured after 14 days by crystal violet staining based by clonogenic assay relative to control; format: functional
[6] = Cytotoxicity against human MDA-MB-231 cells assessed as reduction in cell proliferation at >100 uM incubated for 72 hrs by cell-titer 96 aqueous non-radioactive cell proliferation assay; format: cell-based
[7] = test system: MDA-MB-231; assay: Radiosensitizer activity in PNKP-depleted human MDA-MB-231 cells assessed as reduction in cell survival at 1 uM pre-incubated for 2 hrs prior to gamma irradiation and further incubated for 24 hrs and measured after 14 days by crystal violet staining based by clonogenic assay relative to control; format: functional
[8] = Cytotoxicity against human A549 cells assessed as reduction in cell proliferation at >100 uM incubated for 72 hrs by cell-titer 96 aqueous non-radioactive cell proliferation assay; format: cell-based
[9] = test system: A549; assay: Radiosensitizer activity in PNKP-depleted human A549 cells assessed as reduction in cell survival at 1 uM pre-incubated for 2 hrs prior to gamma irradiation and further incubated for 24 hrs and measured after 14 days by crystal violet staining based by clonogenic assay relative to control; format: functional
[10] = test system: MDA-MB-231; assay: Radiosensitizer activity in human MDA-MB-231 cells assessed as reduction in cell survival at 1 uM pre-incubated for 2 hrs prior to gamma irradiation and further incubated for 24 hrs and measured after 14 days by crystal violet staining based by clonogenic assay relative to control; format: functional
[11] = organism: Rattus norvegicus; assay: Inhibition of rat delta-calcineurin expressed in Escherichia coli assessed as reduction in phosphatase activity by measuring release of inorganic phosphate at 83.3 uM using 5'-TAMRA-tagged 20-mer oligonucleotide as substrate incubated for 30 mins by fluorescence quenching based assay
[12] = Cytotoxicity against human A549 cells assessed as reduction in cell proliferation at 100 uM incubated for 72 hrs by cell-titer 96 aqueous non-radioactive cell proliferation assay; format: cell-based
[13] = test system: A549; assay: Chemosensitizer activity in human A549 cells assessed as reduction in cell survival at 1 uM pre-incubated for 2 hrs prior to camptothecin and further incubated for 24 hrs and measured after 10 to 14 days by crystal violet staining based by clonogenic assay relative to control; format: functional
[14] = target: Aprataxin (Homo sapiens) (UniProt Q7Z2E3); assay: Inhibition of human APTX assessed as reduction in phosphatase activity by measuring release of inorganic phosphate at 50 uM using 5'-TAMRA-tagged 20-mer oligonucleotide as substrate incubated for 30 mins by fluorescence quenching based assay
[15] = target: Serine/threonine-protein phosphatase PP1-gamma catalytic subunit (Homo sapiens) (UniProt P36873); assay: Inhibition of human PP-1cgamma expressed in Escherichia coli assessed as reduction in phosphatase activity by measuring release of inorganic phosphate at 83.3 uM using 5'-TAMRA-tagged 20-mer oligonucleotide as substrate incubated for 30 mins by fluorescence quenching based assay
[16] = test system: M059J; assay: Antiproliferative activity against human M059J cells expressing non-functional DNA dependent protein kinase assessed as reduction in cell survival at 1 to 5 uM by MTS assay; format: cell-based
[17] = target: Bifunctional polynucleotide phosphatase/kinase (Mus musculus) (UniProt Q9JLV6); assay: Inhibition of mouse PNKP assessed as reduction in PNKP 3'-phosphatase activity by measuring release of inorganic phosphate at 5 to 50 uM using 5'-TAMRA-tagged 20-mer oligonucleotide as substrate incubated for 30 mins by fluorescence quenching based assay
[18] = organism: Rattus norvegicus; assay: Inhibition of rat delta-calcineurin expressed in Escherichia coli assessed as reduction in phosphatase activity by measuring release of inorganic phosphate using 5'-TAMRA-tagged 20-mer oligonucleotide as substrate incubated for 30 mins by fluorescence quenching based assay

Sequence of Serine/threonine-protein phosphatase PP1-gamma catalytic subunit (Homo sapiens) (P36873 2-323 limits assumed): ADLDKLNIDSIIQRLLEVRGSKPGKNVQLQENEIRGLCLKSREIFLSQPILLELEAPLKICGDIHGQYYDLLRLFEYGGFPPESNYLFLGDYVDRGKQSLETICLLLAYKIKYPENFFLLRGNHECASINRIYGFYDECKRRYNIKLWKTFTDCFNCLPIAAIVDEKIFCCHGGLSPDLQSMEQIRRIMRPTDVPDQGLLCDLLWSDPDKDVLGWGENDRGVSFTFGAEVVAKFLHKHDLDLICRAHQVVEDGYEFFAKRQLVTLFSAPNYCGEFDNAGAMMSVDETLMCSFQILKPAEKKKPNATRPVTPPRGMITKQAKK
Sequence of Aprataxin (Homo sapiens) (Q7Z2E3 whole entry): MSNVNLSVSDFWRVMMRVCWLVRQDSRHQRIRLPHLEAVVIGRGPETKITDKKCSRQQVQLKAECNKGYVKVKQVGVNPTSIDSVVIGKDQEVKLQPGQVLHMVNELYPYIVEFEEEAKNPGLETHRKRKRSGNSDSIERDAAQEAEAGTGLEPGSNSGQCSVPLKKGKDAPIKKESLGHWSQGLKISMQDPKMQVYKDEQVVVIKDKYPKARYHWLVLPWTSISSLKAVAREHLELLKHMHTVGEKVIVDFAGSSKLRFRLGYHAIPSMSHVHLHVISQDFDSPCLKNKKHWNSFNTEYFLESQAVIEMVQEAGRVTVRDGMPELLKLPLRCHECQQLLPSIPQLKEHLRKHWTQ
Sequence of Bifunctional polynucleotide phosphatase/kinase (Mus musculus) (Q9JLV6 whole entry): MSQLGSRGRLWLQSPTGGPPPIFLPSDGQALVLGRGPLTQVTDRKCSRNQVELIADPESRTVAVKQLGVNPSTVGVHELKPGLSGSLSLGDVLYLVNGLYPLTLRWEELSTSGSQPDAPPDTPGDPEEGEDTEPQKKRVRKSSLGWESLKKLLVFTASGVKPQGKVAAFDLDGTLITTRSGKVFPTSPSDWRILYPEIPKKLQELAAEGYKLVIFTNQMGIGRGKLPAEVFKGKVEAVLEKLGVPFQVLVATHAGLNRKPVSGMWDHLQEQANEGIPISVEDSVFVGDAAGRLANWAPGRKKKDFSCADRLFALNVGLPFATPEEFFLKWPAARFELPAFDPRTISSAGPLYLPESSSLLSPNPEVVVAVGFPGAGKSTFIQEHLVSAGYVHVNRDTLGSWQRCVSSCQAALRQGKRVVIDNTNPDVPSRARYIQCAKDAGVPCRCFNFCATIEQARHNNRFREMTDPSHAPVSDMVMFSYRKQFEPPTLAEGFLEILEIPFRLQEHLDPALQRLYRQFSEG

Structure (SMILES)	inhibition at 72 h, 100 µM [1] [%]	Activity [2]	Activity [3]	Activity [4]	fold change (FC) [5]	inhibition at 72 h [6] [%]	Activity [7]	inhibition at 72 h [8] [%]	Activity [9]	Activity [10]	inhibition [11]	inhibition at 72 h, 100 µM [12] [%]	Activity [13]	inhibition [14]	inhibition [15]	Activity [16]	inhibition [17]	inhibition [18]
CCCCCCCCCCC(O)C1C=CC2C(=O)N(c3ccccc3)C(=O)C2N1Nc1ccc([N+](=O)[O-])cc1 (stereo not drawn)	≤ 50	Active	Non-Toxic	Non-Toxic	2	≤ 50	inactive	≤ 50	inactive	Active	inactive	≤ 50	Active	inactive	inactive	inactive	Active	–
C=C1C(=O)N[C@H](C)C(=O)N[C@@H](CC(C)C)C(=O)N[C@@H](C(=O)O)[C@H](C)C(=O)N[C@@H](CCCNC(=N)N)C(=O)N[C@@H](/C=C/C(C)=C/[C@H](C)[C@H](Cc2ccccc2)OC)[C@H](C)C(=O)N[C@@H](C(=O)O)CCC(=O)N1C (R[Adda][d(γGlu)][NMeDha][dA]L[dAsp(3S-Me)]-OH; lactam N-7)	–	–	–	–	–	–	–	–	–	–	–	–	–	–	–	–	–	Active
